Test results as given in patent US10189809B2, “SGC stimulators” (Ironwood Pharmaceuticals, Inc., priority 2010, dated 2019).

Experiments:
[1] = biological target: T1, Human soluble guanylate cyclase enzyme (hsGC) (Homo sapiens (Human), UniProt Q02108+Q02153); experiment: Purified human sGC enzyme synergy assay in the presence of 1 μM sodium nitroprusside (SNP); type: biochemical; settings: 30 μM compound, with the addition of SNP
Method in brief: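 Fold-change in cGMP-forming specific activity (nmol/mg/min) versus DMSO, with 1 μM SNP present throughout. Reactions held 30 min at 37 °C with 10 or 30 μM compound, 5 ng human sGC, 300 μM GTP, 1 mM IBMX and 2 mM MgCl2 at pH 8.0, then stopped with cold methanol.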

Thoracic aortic rings = experiment: Alternative thoracic aortic rings assay (Example 19b; resting tension as 100% inhibition); design: species or system rat; settings: Table 10A; for inhibition at 10 µM: read-out: Percent Relaxation at 10 μM; for EC50: read-out: Aortic Ring EC50
Method in brief: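 EC50 values come from cumulative concentration-response relaxation of phenylephrine (100 ng/mL)-contracted thoracic aortic rings from 275-299 g male Sprague-Dawley rats. Rings were equilibrated at 1.0 g tension in oxygenated Krebs-Henseleit at 37 °C, with compounds given in DMSO and tension measured isometrically.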

[2] = biological target: T1, Human soluble guanylate cyclase enzyme (hsGC); experiment: Purified human sGC enzyme activity assay; type: biochemical; settings: 30 μM compound, without the addition of SNP
Method in brief: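 Values are fold-change of sGC specific activity, nmoles cGMP per mg enzyme per min, relative to DMSO controls. Reactions: 5 ng human enzyme, 300 μM GTP, 1 mM IBMX, 2 mM MgCl2/DTT, 0.1 M Tris pH 8.0, compound 10 or 30 μM final, 37° C for 30 minutes, methanol quench. cGMP read against a 0.078-10 μM final standard curve.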

[3] = biological target: soluble guanylate cyclase (sGC) (Homo sapiens (Human), UniProt Q02108+Q02153); experiment: sGC-HEK-cGMP assay run with SNP incubation (HEK WC assay); type: cell-based; settings: for Emax at 10 µM: read-out: HEK WC Assay (% Emax at 10 μM/with 10 uM SNP); for Emax at 30 µM: read-out: HEK WC Assay (% Emax at 30 μM/with 10 uM SNP)
Method in brief: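 EC50 values derive from concentration-response curves of intracellular cGMP in HEK293 cells, which express sGC endogenously. Compound and sodium nitroprusside were co-incubated 10 min at 37 °C after a 15-min 0.5 mM IBMX step, with 0.1 M HCl lysis and 1% DMSO vehicle.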

T1 sequence (Q02153 whole entry): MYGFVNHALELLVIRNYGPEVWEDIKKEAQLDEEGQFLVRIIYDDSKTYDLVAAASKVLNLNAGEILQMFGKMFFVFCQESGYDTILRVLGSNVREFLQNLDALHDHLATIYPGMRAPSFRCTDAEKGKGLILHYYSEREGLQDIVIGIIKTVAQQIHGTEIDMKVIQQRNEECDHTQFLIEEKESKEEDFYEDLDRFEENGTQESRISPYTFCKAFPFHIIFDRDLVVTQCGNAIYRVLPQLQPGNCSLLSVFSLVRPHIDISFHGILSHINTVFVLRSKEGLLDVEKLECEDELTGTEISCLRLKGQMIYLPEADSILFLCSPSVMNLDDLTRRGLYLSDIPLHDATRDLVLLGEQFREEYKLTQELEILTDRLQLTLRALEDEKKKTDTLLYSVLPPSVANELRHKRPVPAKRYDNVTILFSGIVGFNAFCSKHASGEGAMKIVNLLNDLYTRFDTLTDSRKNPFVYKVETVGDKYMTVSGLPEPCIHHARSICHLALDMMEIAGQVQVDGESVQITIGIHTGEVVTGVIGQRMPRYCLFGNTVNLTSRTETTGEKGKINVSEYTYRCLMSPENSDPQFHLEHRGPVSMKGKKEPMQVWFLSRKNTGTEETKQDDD
T1 sequence (Q02108 whole entry): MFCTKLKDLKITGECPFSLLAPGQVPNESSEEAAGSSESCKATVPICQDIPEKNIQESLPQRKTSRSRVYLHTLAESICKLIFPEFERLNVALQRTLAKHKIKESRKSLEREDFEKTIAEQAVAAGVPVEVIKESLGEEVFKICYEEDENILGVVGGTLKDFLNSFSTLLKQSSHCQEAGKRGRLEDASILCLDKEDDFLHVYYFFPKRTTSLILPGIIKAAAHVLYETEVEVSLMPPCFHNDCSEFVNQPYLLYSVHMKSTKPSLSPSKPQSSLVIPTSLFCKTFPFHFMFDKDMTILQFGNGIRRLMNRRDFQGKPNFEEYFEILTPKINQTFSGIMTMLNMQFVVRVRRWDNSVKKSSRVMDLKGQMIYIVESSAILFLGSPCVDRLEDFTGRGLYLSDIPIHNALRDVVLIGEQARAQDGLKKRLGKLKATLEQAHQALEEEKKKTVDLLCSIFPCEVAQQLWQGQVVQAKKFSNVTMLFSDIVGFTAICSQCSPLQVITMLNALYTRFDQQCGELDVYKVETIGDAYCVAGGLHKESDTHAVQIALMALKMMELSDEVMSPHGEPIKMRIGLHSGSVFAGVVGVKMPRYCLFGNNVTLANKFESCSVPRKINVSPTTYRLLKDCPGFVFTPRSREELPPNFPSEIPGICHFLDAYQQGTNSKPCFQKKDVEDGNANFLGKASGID
Chain of soluble guanylate cyclase (sGC) (Q02153 whole entry): as the sequence (Q02153 whole entry) above
Chain of soluble guanylate cyclase (sGC) (Q02108 whole entry): as the sequence (Q02108 whole entry) above

| sGC Enzyme (fold increase at 30 μM with SNP) [1] | EC50 (Thoracic aortic rings; Rattus norvegicus) [µM] | sGC Enzyme (fold increase at 30 μM) [2] | Emax at 10 µM [3] [%] | Emax at 30 µM [3] [%] | Structure (SMILES) | inhibition at 1 µM (Thoracic aortic rings; Rattus norvegicus, 1 μM, read-out: Percent Relaxation at 1 μM) [%] | inhibition at 3 µM (Thoracic aortic rings; Rattus norvegicus, 3 μM, read-out: Percent Relaxation at 3 μM) [%] | inhibition at 10 µM (Thoracic aortic rings; Rattus norvegicus) [%] | Percent Relaxation at 1 μM (Thoracic aortic rings; 1 μM, printed as number or words instead of code) | Percent Relaxation at 3 μM (Thoracic aortic rings; 3 μM, printed as words instead of code) |
| --- | --- | --- | --- | --- | --- | --- | --- | --- | --- | --- |
| C (C = 5 to <10 fold increase) | 4 to 8 | D (D = 10 to <30 fold increase) | – | – | COC(=O)Nc1c(N)nc(-c2cc(-c3ccccc3)n(Cc3ccccc3F)n2)nc1N [Compound I-83] | 10 to 20 | 20 to 40 | 60 to 80 | – | – |
| B (B = 2 to <5 fold increase) | 8 to 12 | C (C = 5 to <10 fold increase) | – | – | COC(=O)N(C)c1c(N)nc(-c2cc(-c3ccccc3)n(Cc3ccccc3F)n2)nc1N [Compound I-84] | – | – | 20 to 40 | no relaxation | no relaxation |
| C (C = 5 to <10 fold increase) | – | B (B = 2 to <5 fold increase) | 0 to 10 | 10 to 20 | Fc1ccccc1Cn1nc(-c2ncccn2)cc1-c1ccc(Cl)s1 [Compound I-91] | – | – | – | – | – |
| C (C = 5 to <10 fold increase) | – | B (B = 2 to <5 fold increase) | 10 to 20 | 20 to 40 | COC(=O)Nc1c(N)nc(-c2cc(-c3nccs3)n(Cc3ccccc3F)n2)nc1N [Compound I-93] | – | – | – | – | – |
| B (B = 2 to <5 fold increase) | – | A (A = no increase to <2 fold increase) | 0 to 10 | 0 to 10 | CC(=O)Nc1c(N)nc(-c2cc(-c3nccs3)n(Cc3ccccc3F)n2)nc1N [Compound I-94] | – | – | – | – | – |
| C (C = 5 to <10 fold increase) | – | A (A = no increase to <2 fold increase) | 10 to 20 | 20 to 40 | Cc1nc2c(N)nc(-c3cc(-c4nccs4)n(Cc4ccccc4F)n3)nc2[nH]1 [Compound I-95] | – | – | – | – | – |
| C (C = 5 to <10 fold increase) | – | B (B = 2 to <5 fold increase) | 20 to 40 | 20 to 40 | Cn1c(=O)[nH]c2nc(-c3cc(-c4nccs4)n(Cc4ccccc4F)n3)nc(N)c21 [Compound I-96] | – | – | – | – | – |
| D (D = 10 to <30 fold increase) | – | B (B = 2 to <5 fold increase) | 60 to 80 | 20 to 40 | Cn1c(=O)[nH]c2nc(-c3cc(-c4ncco4)n(Cc4ccccc4F)n3)nc(N)c21 [Compound I-101, 6-amino-2-(1-(2-fluorobenzyl)-5-(oxazol-2-yl)-1H-pyrazol-3-yl)-7-methyl-7H-purin-8(9H)-one] | – | – | – | – | – |
| B (B = 2 to <5 fold increase) | – | A (A = no increase to <2 fold increase) | 20 to 40 | 20 to 40 | Nc1cc(N)nc(-c2cc(-c3ccon3)n(Cc3ccccc3F)n2)n1 [Compound I-103, 2-(1-(2-fluorobenzyl)-5-(isoxazol-3-yl)-1H-pyrazol-3-yl)pyrimidine-4,6-diamine] | – | – | – | – | – |
| C (C = 5 to <10 fold increase) | – | B (B = 2 to <5 fold increase) | 40 to 60 | > 120 | Nc1nc(-c2cc(-c3ccon3)n(Cc3ccccc3F)n2)ncc1C1CC1 [Compound I-104] | – | – | – | – | – |
| C (C = 5 to <10 fold increase) | – | B (B = 2 to <5 fold increase) | 60 to 80 | 0 to 10 | Cl.Nc1cnc(-c2cc(-c3ccon3)n(Cc3ccccc3F)n2)nc1N [Compound I-107, 2-(1-(2-fluorobenzyl)-5-(isoxazol-3-yl)-1H-pyrazol-3-yl)pyrimidine-4,5-diamine hydrochloride] | – | – | – | – | – |
| B (B = 2 to <5 fold increase) | – | A (A = no increase to <2 fold increase) | 20 to 40 | 20 to 40 | Nc1nc(-c2cc(-c3ccon3)n(Cc3ccccc3F)n2)ncc1-c1nccs1 [Compound I-108] | – | – | – | – | – |
| C (C = 5 to <10 fold increase) | – | B (B = 2 to <5 fold increase) | 60 to 80 | 40 to 60 | Cc1cc(N)nc(-c2cc(-c3ccon3)n(Cc3ccccc3F)n2)n1 [Compound I-111] | – | – | – | – | – |
| C (C = 5 to <10 fold increase) | – | A (A = no increase to <2 fold increase) | 20 to 40 | 40 to 60 | Nc1nc(-c2cc(-c3ccon3)n(Cc3ccccc3F)n2)ncc1C(F)(F)F [Compound I-113] | – | – | – | – | – |
| D (D = 10 to <30 fold increase) | – | B (B = 2 to <5 fold increase) | 40 to 60 | 40 to 60 | CC(C)(C)c1cnc(-c2cc(-c3ccon3)n(Cc3ccccc3F)n2)nc1N [Compound I-114] | – | – | – | – | – |
| C (C = 5 to <10 fold increase) | – | B (B = 2 to <5 fold increase) | 20 to 40 | 20 to 40 | Nc1cc(-c2cccnc2)nc(-c2cc(-c3ccon3)n(Cc3ccccc3F)n2)n1 [Compound I-116] | – | – | – | – | – |
| C (C = 5 to <10 fold increase) | – | A (A = no increase to <2 fold increase) | 0 to 10 | 0 to 10 | CS(=O)(=O)c1cnc(-c2cc(-c3ccon3)n(Cc3ccccc3F)n2)nc1N [Compound I-120] | – | – | – | – | – |
| D (D = 10 to <30 fold increase) | – | C (C = 5 to <10 fold increase) | 20 to 40 | 60 to 80 | Nc1nc(-c2cc(-c3ccon3)n(Cc3ccccc3F)n2)ncc1-c1ccccc1 [Compound I-122] | – | – | – | – | – |
| D (D = 10 to <30 fold increase) | – | C (C = 5 to <10 fold increase) | 60 to 80 | 60 to 80 | Nc1nc(-c2cc(-c3ccon3)n(Cc3ccccc3F)n2)ncc1-c1cccnc1 [Compound I-127] | – | – | – | – | – |
| C (C = 5 to <10 fold increase) | – | B (B = 2 to <5 fold increase) | 60 to 80 | 40 to 60 | Nc1nc(-c2cc(-c3ccon3)n(Cc3ccccc3F)n2)ncc1-c1ccccn1 [Compound I-128] | – | – | – | – | – |
| D (D = 10 to <30 fold increase) | – | B (B = 2 to <5 fold increase) | 60 to 80 | 40 to 60 | CCOC(=O)c1cnc(-c2cc(-c3ccon3)n(Cc3ccccc3F)n2)nc1N [Compound I-131] | – | – | – | – | – |
| C (C = 5 to <10 fold increase) | – | B (B = 2 to <5 fold increase) | 40 to 60 | 20 to 40 | Nc1nc(-c2cc(-c3ccon3)n(Cc3ccccc3F)n2)ncc1C(=O)O [Compound I-132] | – | – | – | – | – |
| B (B = 2 to <5 fold increase) | – | A (A = no increase to <2 fold increase) | 20 to 40 | 40 to 60 | CC(C)(O)c1cnc(-c2cc(-c3ccon3)n(Cc3ccccc3F)n2)nc1O [Compound I-133] | – | – | – | – | – |
